Experimental findings from PubChem BioAssay (NCI) are described below.

Holding throughout (experiment): NCI-60 cell line screen, 48 h
In test [1] the test system is SN12C renal.
Test [2] deals with HCT-116 colon.
Test [3] concerns KM12 colon.
Test [4] has as its system UACC-62 melanoma.
Test [5] relates to HOP-92 NSCLC.
Test [6] relates to RXF 393 renal.
Test [7] has as its system SF-539 CNS.
For test [8], the system named is OVCAR-4 ovarian.
Test [9] has as its system NCI-H226 lung.
For test [10], the system named is HOP-62 NSCLC.

Structures are written as SMILES. Values joined by “and” are separate entries in the source; they are usually repeats but may differ in a detail not shown here. Equal values may be shown once.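 1) Cells in 96-well plates. 2) Compound, 48 h, 5 concentrations. 3) Linear interpolation between surrounding doses. 4) Unreached endpoint = highest concentration. At the GI50, growth is halved. Definition used: TGI = concentration required for complete inhibition of growth.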

Regarding `O=C(CC1(O)CCCCC1)OC1CCCC1`, the TGI in test [1], in test [2], in test [3], in test [4], in test [5] and in [6] was above 100 µM throughout. Moreover, the TGI in test [7], in [8], in test [9] and in [10] was above 100 µM each time.

With `COC1CCC(OC)C(c2nc3sccn3c2/C=N/N=C(N)N)C1` (stereo unspecified), the GI50 in test [1] was 22.4 µM; in test [2], 4.9 µM; in test [3], 16 µM; in test [4], 16.6 µM; in test [5], 2.76 µM; in [6], 24.8 µM. The GI50 in test [7] was 20.4 µM; in test [8], 43.5 µM; in test [9], 13.6 µM; in [10] it was 17.2 µM. For the same molecule, the TGI in [1] was 56.3 µM; in test [2], 37.7 µM; in [3], 40.2 µM; in test [4], 32.4 µM; in test [5] it was 30.5 µM; in test [6], above 82.9 µM. Also, the TGI in test [7] is 44 µM; in [8], above 100 µM; in test [9], 47.5 µM; in [10], 42.7 µM.

Consider `CCNc1ccc2c(c1)C(=O)N(OS(C)(=O)=O)C2=O`, for which the TGI in [1], in test [2], in test [3], in [4], in test [5] and in test [6] was above 100 µM in each case. Moreover, the TGI in [7] is 51.5 µM; in test [8], above 100 µM; in [9] it was 97.1 µM; in test [10], above 100 µM.

As to `CC(C)C(Br)C(=O)NCC(=O)O` (stereo unspecified), the TGI in test [1], in [2], in [3], in [4], in [5] and in test [6] was above 100 µM in each case. Moreover, the TGI in [7], in [8], in [9] and in test [10] was above 100 µM each time.

Turning to `CCCC(=O)Nc1cc(/C=C/C(=O)N2C[C@@H]3C[C@]34C2=CC(=O)c2[nH]cc(C)c24)n(C)c1`, the GI50 in test [1] was 0.064 µM; in test [2], 0.03 µM; in test [4], 0.0972 µM; in test [5] it was 0.282 µM; in test [6], 0.111 µM; in test [8], 0.18 µM. The TGI was 2.41 µM and 1.59 µM in [1]; 8.32 µM and 69.9 µM in test [2]; 2.6 µM in test [3]; 0.352 µM and 0.222 µM in test [4]; 1.96 µM and 0.741 µM in test [5]; 0.298 µM and 0.238 µM in test [6]. Further, the TGI is 4.59 µM in test [7]; 1.43 µM and 0.474 µM in [8]; 3.76 µM in test [9]; 25 µM in test [10].

Regarding `Cc1cccc(C=NC23CC4CC(CC(C4)C2)C3)c1`, the TGI in [1], in [2], in test [3], in test [4], in [5] and in test [6] was above 100 µM throughout. In addition, the TGI in [7], in test [8], in test [9] and in test [10] was above 100 µM throughout.

Take `NC(=S)c1cccc(C2Nc3ccccc3O2)c1` (stereo unspecified): the TGI in test [1] was 12.1 µM; in test [2], above 100 µM; in test [3], above 100 µM; in test [4], 96.2 µM; in test [5] it was above 100 µM; in test [6] it was above 100 µM. Further, the TGI in test [7], in test [8], in test [9] and in test [10] was above 100 µM in each case.

For the molecule `CCNC(=O)COc1ccc(Cl)c(C)c1`, the TGI in [1], in test [2], in test [3], in test [4], in [5] and in [6] was above 100 µM throughout. In addition, the TGI in [7], in test [8], in test [9] and in test [10] was above 100 µM in each case.

Regarding `Cn1cc(-c2csc(-c3ccc(Cl)cc3)n2)c2cccnc21`, the GI50 is 14.8 µM in test [1]; 12.8 µM in [2]; 13 µM in test [3]; 10.5 µM in test [4]; 2.54 µM in test [5]; 13.9 µM in test [6]. Moreover, the GI50 in [7] was 14.8 µM; in test [8] it was 21.9 µM; in test [9], 14.8 µM; in [10], 17.2 µM. Also, the TGI in test [1] amounted to 32.5 µM; in [2] it was 25.4 µM; in [3], 27.6 µM; in test [4], 29.8 µM; in test [5], 19.1 µM; in [6] it was 39.8 µM. Also, the TGI in test [7] worked out at 29.5 µM; in [8], 60.8 µM; in test [9], 43.6 µM; in test [10] it was 32.4 µM.

For `COc1ccc(C(=O)Cn2c(C(=O)c3ccc(Cl)cc3)nc(-c3ccccc3)c2-c2ccccc2)cc1`, the GI50 in test [1] is above 100 µM; in [2], above 100 µM; in [3], above 100 µM; in test [4] it was above 100 µM; in [5], 7.43 µM; in test [6] it was 23.6 µM. Besides, the GI50 in [7] is 52.3 µM; in [8], 94.2 µM; in [9], above 100 µM; in [10], above 100 µM. Further, the TGI was above 100 µM in test [1]; above 100 µM in test [2]; above 100 µM in test [3]; above 100 µM in [4]; 83.1 µM in test [5]; above 100 µM in test [6]. Further, the TGI in test [7], in test [8], in [9] and in [10] was above 100 µM throughout.

Take `N#C/C(=C/C=C/c1cccc(Cl)c1)S(=O)c1ccccc1` (stereo unspecified): the GI50 is 0.359 µM in test [1]; 0.241 µM in test [2]; 0.321 µM in [3]; 1.14 µM in test [4]; 0.398 µM in [5]; 0.233 µM in test [6]. The GI50 in test [7] was 0.281 µM; in test [8], 0.266 µM; in test [9], 1.14 µM; in test [10], 0.326 µM. In addition, the TGI turned out to be 1.42 µM in test [1]; 0.642 µM in test [2]; 1.38 µM in [3]; 2.69 µM in test [4]; 1.62 µM in test [5]; 0.568 µM in [6]. In addition, the TGI in [7] amounted to 0.882 µM; in test [8], 1.16 µM; in [9], 3.68 µM; in [10], 1.13 µM.

Consider `COc1cc(C=NCC(=O)CSC(c2ccccc2)c2ccccc2)ccc1O`, for which the GI50 is 14.1 µM in [1]; 8.69 µM in test [2]; 11.9 µM in test [3]; 13.6 µM in test [4]; 10 µM in [5]; 13.4 µM in [6]. Besides, the GI50 in [7] was 14.8 µM; in test [8], 5.32 µM; in test [9], 16.8 µM; in test [10], 14.6 µM. Moreover, the TGI in test [1] is 28.1 µM; in [2], 21 µM; in [3], 26.3 µM; in [4] it was 27.5 µM; in test [5], 21.7 µM; in test [6], 26.8 µM. In addition, the TGI in [7] is 29.1 µM; in test [8], 23 µM; in test [9], 38.5 µM; in [10], 27.9 µM.

Turning to `COc1ccc(-c2cn3ccnc3c(-c3ccc(Cl)cc3)n2)cc1`, the GI50 was 10.4 µM in [1]; above 100 µM in test [2]; 4.68 µM in test [3]; 19.4 µM in test [4]; 10.2 µM in test [5]; 28.2 µM in test [6]. Moreover, the GI50 is 8.97 µM in test [7], 5.61 µM in test [8], 42.8 µM in test [9] and 16.3 µM in [10]. Moreover, the TGI in test [1] is 46 µM; in test [2], above 100 µM; in test [3] it was above 100 µM; in [4], above 100 µM; in test [5], 48.4 µM; in test [6], above 100 µM. The TGI in [7] is 58 µM; in [8], above 100 µM; in test [9] it was above 100 µM; in test [10], above 100 µM.

As to `O=C(O)CCN1C(=S)CSC1=S`, the TGI in [1], in [2], in [3], in test [4], in [5] and in test [6] was above 100 µM throughout. For the same molecule, the TGI in test [7], in test [8], in [9] and in test [10] was above 100 µM in each case.

`O=C1C=C(NCCc2ccccc2)c2ccccc2C1=O`: the TGI was 3.37 µM in test [1]; 18 µM in test [2]; 8.72 µM in test [3]; 3.34 µM in test [4]; 29.5 µM in [5]; 20.4 µM in test [6]. For the same molecule, the TGI in test [7] is 4.46 µM; in [8] it was 13.4 µM; in test [9] it was 4.61 µM; in [10], 4.89 µM.

For the molecule `BrCc1ccc2ccc3ccc(CBr)nc3c2n1`, the TGI was 4.55 µM in test [1]; 6.7 µM in [2]; 14.7 µM in test [3]; above 37.8 µM in [4]; 4.04 µM in test [5]; 4.69 µM in [6]. Moreover, the TGI amounted to 11 µM in test [7], 12.3 µM in test [8], 15 µM in test [9] and 21 µM in test [10].

Consider `CSC(=S)NCc1cn(C)c2ccccc12`, for which the GI50 is 26.9 µM in test [1]; 50.5 µM in test [2]; 33.1 µM in [3]; 20.1 µM in [4]; 23.9 µM in [5]; 17.9 µM in [6]. For the same molecule, the GI50 in [7] is 25 µM; in [8] it was 62 µM; in [9], 23.4 µM; in [10], 49.4 µM. Moreover, the TGI is 80.8 µM in test [1]; above 100 µM in [2]; above 100 µM in test [3]; 42.7 µM in test [4]; above 100 µM in test [5]; 59.6 µM in test [6]. The TGI in test [7] was 62.3 µM; in test [8], above 100 µM; in test [9], 64.8 µM; in test [10], above 100 µM.

`Cc1cc(C)c(-c2c(O)c(Br)c(-c3c(C)cc(C)c(Br)c3C)c(O)c2Br)c(C)c1Br`: the GI50 in [1] is 2.69 µM; in test [2], 2.13 µM; in [3] it was 3.47 µM; in [4] it was 1.54 µM; in test [5], 0.66 µM; in test [6], 2.27 µM. The GI50 was 2.6 µM in test [7], 2.56 µM in test [8], 2.54 µM in test [9] and 2.81 µM in test [10]. In addition, the TGI was 15 µM in test [1]; 5.53 µM in test [2]; 13.1 µM in [3]; 4.04 µM in [4]; 5.67 µM in test [5]; 7.31 µM in test [6]. In addition, the TGI in test [7] turned out to be 8.11 µM; in [8], 9.92 µM; in [9] it was 9.52 µM; in [10] it was 10.1 µM.

Take `CC(=O)/C(=N\N=C(N)N)c1ccccc1`: the TGI in test [1], in test [2], in [3], in test [4], in test [5] and in test [6] was above 100 µM throughout. For the same molecule, the TGI in test [7], in test [8], in test [9] and in test [10] was above 100 µM in each case.

As to `O=C(Cc1nc2ccccc2s1)C(=O)Nc1cccc(C(F)(F)F)c1`, the TGI in [1], in [2], in [3], in [4], in [5] and in test [6] was above 100 µM each time. The TGI in test [7], in test [8], in [9] and in test [10] was above 100 µM each time.
